The source made the active and inactive calls. The calls are words filed in the database; no cut-off is given here.
Experiments:
GTP-binding protein Rheb [1] = target: T1, GTP-binding protein Rheb (Homo sapiens, UniProt Q15382); experiment: Binding affinity to full-length Rheb (unknown origin) by NMR spectroscopic analysis
GTPase KRas = GTPase KRas (Homo sapiens, UniProt P01116); experiment: Binding affinity to human K-RAS by NMR analysis
GTP-binding protein Rheb [2] = target: T1, GTP-binding protein Rheb; experiment: Inhibition of RHEB in human HeLa cells assessed as decrease in phospho-S6 protein level at 100 uM after 4 hrs by Western blotting analysis; assay type: cell-based
HeLa [3] = experiment: Induction of apoptosis in human HeLa cells assessed as increase in cellular degeneration at 25 to 250 uM after 4 hrs by MTT assay; assay type: functional, cell-based
HeLa [4] = experiment: Induction of apoptosis in human HeLa cells assessed as increase in cellular degeneration at >100 uM after 24 hrs by DAPI-staining-based microscopic analysis; assay type: functional, cell-based

T1 sequence (Q15382 whole entry): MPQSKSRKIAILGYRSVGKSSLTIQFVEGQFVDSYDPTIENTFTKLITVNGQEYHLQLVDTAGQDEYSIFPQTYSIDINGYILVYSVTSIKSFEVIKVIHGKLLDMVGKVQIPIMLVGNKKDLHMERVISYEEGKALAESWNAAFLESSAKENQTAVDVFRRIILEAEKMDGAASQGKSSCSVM

Which results are given for `Oc1ccc(-c2ccc(O)cc2)cc1`?
Kd (GTP-binding protein Rheb [1]): 1500 µM; inhibition (GTPase KRas): inactive; inhibition (GTP-binding protein Rheb [2]): Active; Activity (HeLa [3]): Active

Which results are given for `CC(C)(c1ccc(O)cc1)c1ccc(O)cc1` [BISPHENOL A]?
Kd (GTP-binding protein Rheb [1]): 1800 µM; Kd (GTPase KRas): 600 µM; inhibition (GTP-binding protein Rheb [2]): inactive; Activity (HeLa [4]): Active
